In US11214803B2, “Modulators of YAP1 expression” (Ionis Pharmaceuticals, Inc., priority 2019, dated 2022):
Strand notation (5' to 3'): a small letter for the sugar, then the base; units joined by * are phosphorothioate-linked, units joined directly phosphodiester-linked; [ ] holds rarer units or linkages, { } end groups; capitals alone tell only the bases. k = constrained ethyl (cEt); [5mC] = 5-methylcytosine; d = 2'-deoxy (DNA)

Test system: Yap1 mRNA
Assay: Antisense inhibition of human Yap1 in A-431 cells by cEt gapmers, single dose (Example 4, RTS4814)
Format: cell-based
Outline: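 Values are % UTC: Yap1 mRNA by quantitative RT-PCR, normalized to RIBOGREEN total RNA. Cells were exposed ~48 h to 2,000 nM oligonucleotide without transfection. Oligonucleotides were 16-nucleoside gapmers with three cEt nucleosides per wing, ten-deoxy gap, P=S linkages throughout.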

[1] = Table 15, A-431 cells, 5,000 cells per well, free uptake, 2,000 nM, approximately 48 hours, RTS4814, normalized to RIBOGREEN, Yap1 mRNA relative to untreated control, * = targets amplicon region of primer probe set
[2] = Table 14, A-431 cells, 5,000 cells per well, free uptake, 2,000 nM, approximately 48 hours, RTS4814, normalized to RIBOGREEN, Yap1 mRNA relative to untreated control, * = targets amplicon region of primer probe set
[3] = Yap1 mRNA remaining as percent of untreated control, 3-10-3 cEt gapmers, A-431 cells, Table 36
[4] = Yap1 mRNA remaining as percent of untreated control, 3-10-3 cEt gapmers, A-431 cells, Table 37
[5] = Table 16, A-431 cells, 5,000 cells per well, free uptake, 2,000 nM, approximately 48 hours, RTS4814, normalized to RIBOGREEN, Yap1 mRNA relative to untreated control cells
[6] = Table 17, A-431 cells, 5,000 cells per well, free uptake, 2,000 nM, approximately 48 hours, RTS4814, normalized to RIBOGREEN, Yap1 mRNA relative to untreated control cells
[7] = table after Table 37, headed TABLE 32 (gapmers targeting SEQ ID NO.: 3), A-431 cells, free uptake, 2,000 nM, approximately 48 hours, RTS4814

Substance: 1075553 (kT*kG*kA*dT*dT*dA*dT*dA*dA*d[5mC]*dA*dT*dG*k[5mC]*kT*kG; antisense) [Compound 1075553]
- YAP1 (% UTC) [1]: 77 % UTC

Substance: 1074688 (antisense kT*k[5mC]*k[5mC]*d[5mC]*d[5mC]*d[5mC]*dT*dA*dA*dG*d[5mC]*dT*dA*kA*kA*kG) [Compound 1074688]
- YAP1 (% UTC) [2]: 83 % UTC

Substance: 1076278 (kA*kA*kT*dA*dA*dG*dG*dA*d[5mC]*dA*dG*dG*dA*k[5mC]*k[5mC]*k[5mC]; antisense) [compound 1076278]
- YAP1 (% UTC) [3]: 29 % UTC

Substance: 1075127 (kG*k[5mC]*kT*dA*dA*dA*dT*dT*dA*dT*dG*d[5mC]*dT*kA*kT*kT; antisense) [compound 1075127]
- YAP1 (% UTC) [4]: 79 % UTC

Substance: 1074592 (antisense kG*kG*kA*dG*d[5mC]*dA*dA*dG*dT*d[5mC]*dT*dT*dG*kT*kA*kA) [Compound 1074592]
- YAP1 (% UTC) [2]: 23 % UTC

Substance: 1075746 (kG*kA*kT*dT*dA*dA*d[5mC]*d[5mC]*d[5mC]*dA*dG*dT*dA*kG*kA*kG; antisense) [Compound 1075746]
- YAP1 (% UTC) [5]: 28 % UTC

Substance: 1074304 (antisense k[5mC]*kT*kG*d[5mC]*d[5mC]*dG*dA*dA*dG*d[5mC]*dA*dG*dT*kT*k[5mC]*kT) [Compound 1074304]
- YAP1 (% UTC) [2]: 109 % UTC

Substance: 1076150 (kA*kT*kT*dT*dA*dT*dT*dA*dA*d[5mC]*dT*d[5mC]*dA*k[5mC]*kG*kA; antisense) [compound 1076150]
- YAP1 (% UTC) [3]: 11 % UTC

Substance: 1075873 (k[5mC]*kT*kT*dG*dA*dA*dT*dA*d[5mC]*dT*dA*d[5mC]*dA*k[5mC]*k[5mC]*kA; antisense) [Compound 1075873]
- YAP1 (% UTC) [1]: 16 % UTC

Substance: 1076131 (kT*kA*kT*dT*dA*dT*dG*dA*dG*dG*dA*d[5mC]*dT*kG*kA*kT; antisense) [Compound 1076131]
- YAP1 (% UTC) [6]: 23 % UTC

Substance: 1075715 (kG*kA*kA*dT*dT*dA*d[5mC]*dA*dA*dT*d[5mC]*dA*dA*k[5mC]*k[5mC]*kT; antisense) [Compound 1075715]
- YAP1 (% UTC) [6]: 12 % UTC

Substance: 1075680 (kA*kT*kT*dA*dT*dT*dA*d[5mC]*d[5mC]*d[5mC]*d[5mC]*dT*dT*k[5mC]*kT*kA; antisense) [Compound 1075680]
- YAP1 (% UTC) [2]: 73 % UTC

Substance: 1074883 (kG*kG*k[5mC]*dT*dA*dA*d[5mC]*dT*d[5mC]*d[5mC]*dT*dG*d[5mC]*k[5mC]*kG*kA; antisense) [compound 1074883]
- YAP1 (% UTC) [7]: 107 % UTC

Substance: 1076001 (kA*k[5mC]*kT*d[5mC]*dA*dA*dG*dG*dA*dA*d[5mC]*d[5mC]*dA*kT*kT*kT; antisense) [Compound 1076001]
- YAP1 (% UTC) [1]: 24 % UTC

Substance: 1074550 (DNA kA*kT*kA*dT*d[5mC]*dT*dA*d[5mC]*d[5mC]*dG*dT*dA*dT*kG*k[5mC]*k[5mC]; antisense) [compound 1074550]
- YAP1 (% UTC) [3]: 23 % UTC

Substance: 1074465 (kA*kA*kT*d[5mC]*dT*dA*dT*dA*dT*dT*dA*dG*dA*kG*kT*kA; antisense) [Compound 1074465]
- YAP1 (% UTC) [1]: 44 % UTC

Substance: 1074306 (antisense k[5mC]*k[5mC]*kT*d[5mC]*dA*d[5mC]*d[5mC]*dT*dG*d[5mC]*d[5mC]*dG*dA*kA*kG*k[5mC]) [Compound 1074306]
- YAP1 (% UTC) [5]: 107 % UTC

Substance: 1076323 (k[5mC]*kA*kA*dT*dT*dT*dA*d[5mC]*dA*dA*dG*dT*dG*kA*kG*k[5mC]; antisense) [Compound 1076323]
- YAP1 (% UTC) [6]: 5 % UTC

Substance: 1075734 (kA*kG*kG*d[5mC]*dA*dA*dT*dA*dA*d[5mC]*d[5mC]*dT*d[5mC]*kG*kA*kG; antisense) [compound 1075734]
- YAP1 (% UTC) [3]: 26 % UTC

Substance: 1074166 (antisense kA*k[5mC]*k[5mC]*d[5mC]*dA*dG*dG*d[5mC]*dG*dA*dG*d[5mC]*dG*kA*kG*kG) [compound 1074166]
- YAP1 (% UTC) [3]: 72 % UTC

Substance: 1074113 (k[5mC]*kT*k[5mC]*d[5mC]*dA*dA*d[5mC]*dT*d[5mC]*d[5mC]*d[5mC]*dT*dT*kG*kA*k[5mC]; antisense) [Compound 1074113]
- YAP1 (% UTC) [1]: 61 % UTC

Substance: 1074690 (antisense k[5mC]*k[5mC]*kT*d[5mC]*d[5mC]*d[5mC]*d[5mC]*d[5mC]*dT*dA*dA*dG*d[5mC]*kT*kA*kA) [Compound 1074690]
- YAP1 (% UTC) [5]: 81 % UTC

Substance: 1075703 (kG*kG*kA*dG*dA*dA*dA*dG*d[5mC]*d[5mC]*dA*dT*d[5mC]*kA*kA*kG; antisense) [compound 1075703]
- YAP1 (% UTC) [4]: 10 % UTC

Substance: 1075586 (kT*kA*kT*dT*dA*dG*d[5mC]*dA*d[5mC]*d[5mC]*dT*dG*dG*kG*kT*kA; antisense) [Compound 1075586]
- YAP1 (% UTC) [5]: 64 % UTC

Substance: 1074528 (k[5mC]*kT*kG*d[5mC]*d[5mC]*d[5mC]*d[5mC]*dA*dA*d[5mC]*d[5mC]*dA*dG*kA*kT*kT; antisense) [Compound 1074528]
- YAP1 (% UTC) [2]: 25 % UTC

Substance: 1076257 (k[5mC]*kT*kA*dA*dG*dA*dA*dA*d[5mC]*dT*d[5mC]*dA*dT*kA*kG*kT; antisense) [Compound 1076257]
- YAP1 (% UTC) [1]: 54 % UTC

Substance: 1074947 (antisense kT*k[5mC]*k[5mC]*dA*dA*dA*dA*d[5mC]*d[5mC]*d[5mC]*dT*dT*dT*kG*kG*kT) [Compound 1074947]
- YAP1 (% UTC) [6]: 99 % UTC

Substance: 1075895 (antisense kA*k[5mC]*kT*d[5mC]*dG*dA*dA*dA*dG*d[5mC]*dT*dG*dG*kG*k[5mC]*k[5mC]) [compound 1075895]
- YAP1 (% UTC) [4]: 38 % UTC

Substance: 1074112 (kT*k[5mC]*k[5mC]*dA*dA*d[5mC]*dT*d[5mC]*d[5mC]*d[5mC]*dT*dT*dG*kA*k[5mC]*kG; antisense) [Compound 1074112]
- YAP1 (% UTC) [2]: 83 % UTC

Substance: 1074659 (antisense k[5mC]*kT*kA*dA*dA*dA*d[5mC]*dT*d[5mC]*d[5mC]*dA*dT*d[5mC]*kT*kG*k[5mC]) [Compound 1074659]
- YAP1 (% UTC) [6]: 12 % UTC

Substance: 1074231 (antisense kA*kA*kA*dG*dA*dA*dG*dA*d[5mC]*dT*dG*dT*d[5mC]*kG*kA*kA) [compound 1074231]
- YAP1 (% UTC) [4]: 8 % UTC

Substance: 1076567 (kG*kA*kT*dT*dA*d[5mC]*dA*dG*dT*dG*dA*d[5mC]*dA*kT*kT*k[5mC]; antisense) [compound 1076567]
- YAP1 (% UTC) [4]: 10 % UTC

Substance: 1076470 (kG*kA*kT*dA*dA*dA*dG*dA*dG*dG*dT*dT*dA*kA*k[5mC]*kA; antisense) [compound 1076470]
- YAP1 (% UTC) [3]: 34 % UTC

Substance: 1076291 (kG*kA*kT*dT*dA*dA*dT*dG*dG*dT*dG*dG*d[5mC]*kA*kT*kT; antisense) [Compound 1076291]
- YAP1 (% UTC) [6]: 4 % UTC

Substance: 1074884 (kG*kG*kG*d[5mC]*dT*dA*dA*d[5mC]*dT*d[5mC]*d[5mC]*dT*dG*k[5mC]*k[5mC]*kG; antisense) [compound 1074884]
- YAP1 (% UTC) [7]: 110 % UTC

Substance: 1075382 (antisense kA*kT*kT*dA*dT*dT*dA*d[5mC]*d[5mC]*d[5mC]*dT*dA*d[5mC]*kT*k[5mC]*kA) [compound 1075382]
- YAP1 (% UTC) [3]: 33 % UTC

Substance: 1075971 (kT*kA*kT*dT*dA*dA*d[5mC]*dA*dT*dA*d[5mC]*d[5mC]*dT*k[5mC]*kA*kT; antisense) [Compound 1075971]
- YAP1 (% UTC) [6]: 28 % UTC

Substance: 1075104 (antisense kA*kT*kT*dA*dT*dA*dA*dG*dG*dT*d[5mC]*d[5mC]*dT*kA*k[5mC]*kA) [Compound 1075104]
- YAP1 (% UTC) [2]: 67 % UTC

Substance: 1075299 (kG*kA*kT*dA*dA*d[5mC]*d[5mC]*dA*dA*dT*dG*d[5mC]*dA*k[5mC]*k[5mC]*kA; antisense) [Compound 1075299]
- YAP1 (% UTC) [6]: 21 % UTC
